*1 amine or outer side, *2 acyl side, *3 side chain or, on linkers, in order; H or OH if unused. Where a SMILES comes first, the peptide text is derived from it. The star is where a group is joined. C20 diacid = O=C(O)CCCCCCCCCCCCCCCCCCC(=O)*; C18 diacid = O=C(O)CCCCCCCCCCCCCCCCC(=O)*; γGlu = O=C(O)[C@H](CCC(=O)[*:2])N[*:1]; βAsp = O=C(O)[C@H](CC(=O)[*:2])N[*:1]
Columns and labels:
[1] = Study of weight change and food consumption in rats; assay type: in vivo, SD (Sprague Dawley) rats; conditions: SD rats, subcutaneous, 10 nmol/kg
Excerpt: SD (Sprague Dawley) rats weighing 200-250 g were used for this study. The rats were received at least 10-14 days before the study began such that they could accommodate to the experimental environment. After arrival, they were exposed to a reversed light/dark cycle (i.e., lights switched off in daytime and on in nighttime) for two weeks and were individually housed for the first week so as to ensure high data accuracy and test sensitivity. Throughout the acclimation and experiment period, the rats had free access to food and water. 5-8 rats were assigned to each testing group for the derivatives and were subcutaneously administered the derivatives at a dose of 10 nmol/kg or a vehicle, and the dosing timepoint was recorded for each group. After dosing, the rats were put back into cages where they were housed and could have access to food and water. Food consumption and weight change of the rats were recorded online or manually every 24 hours.

[2] = Heat accelerated stability assay under a neutral condition; assay type: physicochemical; conditions: pH about 7.4, 40°C; for Changes in characteristics or properties, 0d / Changes in characteristics or properties, 7d: 1 mg/mL, phosphate; for Concentration change (7d-0d)/%: Day 7 vs Day 0, reversed phase chromatography; for Purity Change% (7d-0d) / Purity Change% (26d-0d): purity from reversed phase chromatography-214 nm; for Purity Change% (7d-0d): Day 7 vs Day 0; for Purity Change% (26d-0d): Day 26 vs Day 0
Method: The lyophilized powder (1 mg/mL) of calcitonin analogues or derivatives prepared in accordance with the method of Example 1 were mixed with sodium dihydrogen phosphate (1.42 mg/mL) and dissolved in ultrapure water in the indicated mass-volume ratios. After adjusting pH to about 7.4 with hydrochloric acid/sodium hydroxide, the solution was filtered into a sterilized vial in a clean bench using a 0.22 µm sterile filter. The vial was then capped and placed into the stability test chamber at 40°C. Detections were made on Days 7 (7d) and 26 (26d), and during the assay, changes in the characteristics and properties of the polypeptides were observed and recorded. The sample was then centrifuged for 3 min at 10000 rpm at 4°C, and the supernatant was transferred to a liquid phase sample vial for detecting the concentration and purity of the polypeptides using liquid phase chromatography described as below, wherein the concentration of the polypeptide = peak area/injection volume/extinction coefficient/60×flow rate, and the purity of the polypeptide = target peak area/total peak area× 100%.
Conditions of the reversed phase chromatography Flow rate: 1.0 ml/min; Autosampler temperature: 15°C; Column temperature: 25°C; Detection wavelengths: 280 nm and 214 nm; Mobile phase A: 100% H2O+0.05% TFA; Mobile phase B: 100% ACN; and Gradient of elution listed in Table 4: Table 4. Listing of the gradient of elution in the liquid phase chromatography
Results were shown below in Tables 5, 6, and 7. A difference of more than 5% in content as compared with the initial value was typically assumed (for example, as prescribed by the Chinese Pharmacopeia (2020 Edition)) to be a significant change. Within a reasonable margin of error, a decrease of less than 1% from the initial value to the detected content is denoted as "no change" below. Table 5. Changes in characteristics or properties in the heat accelerated stability assay

[3] = target: T1, human amylin receptors (Homo sapiens, UniProt O60896+P30988); experiment: Luciferase assay of amylin (amylin receptor/CRE-luc cell line); assay type: cell-based; conditions: stably transfected amylin receptor/CRE-luc CHO cells (CHO-K1/Gal5/AMY3), 24 hours incubation, luciferase readout;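 note: agonist potency from luminescence of cAMP response element-driven luciferase, EC50 derived from a standard curve of signal versus compound concentration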
T1 sequence (P30988 25-474): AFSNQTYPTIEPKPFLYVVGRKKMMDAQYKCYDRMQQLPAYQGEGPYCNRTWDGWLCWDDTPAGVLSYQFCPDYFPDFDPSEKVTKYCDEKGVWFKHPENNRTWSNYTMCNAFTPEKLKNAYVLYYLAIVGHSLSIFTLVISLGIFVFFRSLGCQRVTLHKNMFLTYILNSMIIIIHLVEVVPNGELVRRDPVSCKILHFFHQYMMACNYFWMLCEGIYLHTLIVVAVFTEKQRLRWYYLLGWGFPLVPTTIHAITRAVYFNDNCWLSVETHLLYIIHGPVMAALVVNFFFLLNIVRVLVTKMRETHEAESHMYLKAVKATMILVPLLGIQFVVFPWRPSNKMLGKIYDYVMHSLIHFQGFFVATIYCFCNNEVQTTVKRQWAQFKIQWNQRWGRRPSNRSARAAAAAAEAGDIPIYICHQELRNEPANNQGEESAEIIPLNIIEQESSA
T1 sequence (O60896 24-148 partner): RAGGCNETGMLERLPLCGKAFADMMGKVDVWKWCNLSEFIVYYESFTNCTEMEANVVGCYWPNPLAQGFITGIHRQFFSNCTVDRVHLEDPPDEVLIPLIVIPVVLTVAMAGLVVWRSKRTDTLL
Excerpt: The objective of this assay is to test the activity or potency of calcitonin analogues or derivatives on human amylin receptors in vitro using a luciferase assay.
Using the standard protocol, CHO-K1/Gal5/AMY3 cells (purchased from GenScript, with the calcitonin receptor and the receptor activity modifying peptide (RAMP) constructed already) were transfected with a plasmid containing a luciferase expression cassette driven by multiple copies of cAMP response elements (CREs). The cells were cultured in an F12 medium containing 200 ug/mL Zeocin, 2 ug/mL puromycin, 100 ug/mL hygromycin, and 400 ug/mL G418 to afford a stably transfected amylin receptor/CRE-luc cell line.
To each well of a white 96-well plate was added 50 µL of the tested sample solution at a respective concentration.
The stably transfected amylin receptor/CRE-luc CHO cells were resuspended in the growth medium at a certain density, and 50 µL of the cell suspension was added at a density of about 20000 cells per well to the white 96-well plate containing the tested sample solution. After incubation of 24 hours at 37°C and 5% CO2, 100 µL of a Luciferase substrate was added to each well, incubated for 3 minutes, and finally was tested for luminescence on SpectraMax L (Molecular Devices) with the software SoftMax Pro 7.0.3 GxP. A standard curve was plotted using the fluorescent intensities for calculation of EC50.

| SMILES | Effect on reducing food intake ([1]; accumulated food intake recorded every 24 hours (FIGs. 7 and 9)) | Effect on reducing body weight ([1]; recorded every 24 hours (FIGs. 6 and 8)) | Changes in characteristics or properties, 0d [2] | Changes in characteristics or properties, 7d [2] | Concentration change (7d-0d)/% [2] | Purity Change% (7d-0d) [2] | Purity Change% (26d-0d) [2] | EC50 [3] |
| --- | --- | --- | --- | --- | --- | --- | --- | --- |
| CC(C)C[C@H](NC(=O)[C@H](CCCNC(=N)N)NC(=O)CNC(=O)[C@H](CC(C)C)NC(=O)[C@@H](NC(=O)[C@H](C)NC(=O)[C@@H](NC(=O)[C@H](CO)NC(=O)[C@H](CC(C)C)NC(=O)[C@H](CCC(N)=O)NC(=O)[C@H](CO)NC(=O)[C@H](C)NC(=O)CC[C@H](NC(=O)CCCCCCCCCCCCCCCCCCC(=O)O)C(=O)O)[C@@H](C)O)C(C)C)C(=O)N[C@@H](CO)C(=O)N[C@@H](CCC(N)=O)C(=O)N[C@@H](CCC(=O)O)C(=O)N[C@@H](CC(C)C)C(=O)N[C@@H](Cc1c[nH]cn1)C(=O)N[C@@H](CCCNC(=N)N)C(=O)N[C@@H](CC(C)C)C(=O)N[C@@H](CCC(N)=O)C(=O)N[C@@H](CC(=O)O)C(=O)N[C@@H](CC(C)C)C(=O)N1CCC[C@H]1C(=O)N[C@@H](CCCNC(=N)N)C(=O)N[C@H](C(=O)N[C@@H](CC(=O)O)C(=O)N[C@H](C(=O)NCC(=O)N[C@@H](CO)C(=O)NCC(=O)N[C@@H](CO)C(=O)N1CCC[C@H]1C(N)=O)C(C)C)[C@@H](C)O [M18] ({C20 diacid-γGlu}-ASQLSTAVLGRLSQELHRLQDLPRTDVGSGSP-NH2) | particularly effective | particularly effective | – | – | – | – | – | – |
| CC(C)C[C@H](NC(=O)[C@H](CCCNC(=N)N)NC(=O)CNC(=O)[C@H](CC(C)C)NC(=O)[C@@H](NC(=O)[C@H](C)NC(=O)[C@@H](NC(=O)[C@H](CO)NC(=O)[C@H](CC(C)C)NC(=O)[C@H](CCC(N)=O)NC(=O)[C@H](CO)NC(=O)[C@H](C)NC(=O)CC[C@H](NC(=O)CCCCCCCCCCCCCCCCC(=O)O)C(=O)O)[C@@H](C)O)C(C)C)C(=O)N[C@@H](CO)C(=O)N[C@@H](CC(=O)O)C(=O)N[C@@H](CCC(=O)O)C(=O)N[C@@H](CC(C)C)C(=O)N[C@@H](Cc1c[nH]cn1)C(=O)N[C@@H](CCCNC(=N)N)C(=O)N[C@@H](CC(C)C)C(=O)N[C@@H](CCC(N)=O)C(=O)N[C@@H](CC(=O)O)C(=O)N[C@@H](Cc1ccc(O)cc1)C(=O)N1CCC[C@H]1C(=O)N[C@@H](CCCNC(=N)N)C(=O)N[C@H](C(=O)N[C@@H](CC(=O)O)C(=O)N[C@H](C(=O)NCC(=O)N[C@@H](CO)C(=O)NCC(=O)N[C@@H](CO)C(=O)N1CCC[C@H]1C(N)=O)C(C)C)[C@@H](C)O [M39] ({C18 diacid-γGlu}-ASQLSTAVLGRLSDELHRLQDYPRTDVGSGSP-NH2) | – | – | Clear | Clear | No change (a decrease of less than 1% from the initial value to the detected content is denoted as "no change") | No change (a decrease of less than 1% from the initial value to the detected content is denoted as "no change") | -3.3% | 16 pM |
| CC(C)C[C@H](NC(=O)[C@H](CCCNC(=N)N)NC(=O)CNC(=O)[C@H](CC(C)C)NC(=O)[C@@H](NC(=O)[C@H](C)NC(=O)[C@@H](NC(=O)[C@H](CO)NC(=O)[C@H](CC(C)C)NC(=O)[C@H](CCC(N)=O)NC(=O)[C@H](CO)NC(=O)[C@H](C)NC(=O)[C@H](CCC(=O)O)NC(=O)CCCCCCCCCCCCCCCCC(=O)O)[C@@H](C)O)C(C)C)C(=O)N[C@@H](CO)C(=O)N[C@@H](CC(=O)O)C(=O)N[C@@H](CCC(=O)O)C(=O)N[C@@H](CC(C)C)C(=O)N[C@@H](Cc1c[nH]cn1)C(=O)N[C@@H](CCCNC(=N)N)C(=O)N[C@@H](CC(C)C)C(=O)N[C@@H](CCC(N)=O)C(=O)N[C@@H](CC(=O)O)C(=O)N[C@@H](Cc1ccc(O)cc1)C(=O)N1CCC[C@H]1C(=O)N[C@@H](CCCNC(=N)N)C(=O)N[C@H](C(=O)N[C@@H](CC(=O)O)C(=O)N[C@H](C(=O)NCC(=O)N[C@@H](CO)C(=O)NCC(=O)N[C@@H](CO)C(=O)N1CCC[C@H]1C(N)=O)C(C)C)[C@@H](C)O [M42] ({C18 diacid}-EASQLSTAVLGRLSDELHRLQDYPRTDVGSGSP-NH2) | – | – | Clear | Clear | -3.344% | No change (a decrease of less than 1% from the initial value to the detected content is denoted as "no change") | -2.93% | 16 pM |
| CC(C)C[C@H](NC(=O)[C@H](CCCNC(=N)N)NC(=O)CNC(=O)[C@H](CC(C)C)NC(=O)[C@@H](NC(=O)[C@H](C)NC(=O)[C@@H](NC(=O)[C@H](CO)NC(=O)[C@H](CC(C)C)NC(=O)[C@H](CCC(N)=O)NC(=O)[C@H](CO)NC(=O)[C@H](C)NC(=O)C[C@H](NC(=O)CCCCCCCCCCCCCCCCCCC(=O)O)C(=O)O)[C@@H](C)O)C(C)C)C(=O)N[C@@H](CO)C(=O)N[C@@H](CC(=O)O)C(=O)N[C@@H](CCC(=O)O)C(=O)N[C@@H](CC(C)C)C(=O)N[C@@H](Cc1c[nH]cn1)C(=O)N[C@@H](CCCNC(=N)N)C(=O)N[C@@H](CC(C)C)C(=O)N[C@@H](CCC(N)=O)C(=O)N[C@@H](CC(=O)O)C(=O)N[C@@H](Cc1ccc(O)cc1)C(=O)N1CCC[C@H]1C(=O)N[C@@H](CCCNC(=N)N)C(=O)N[C@H](C(=O)N[C@@H](CC(=O)O)C(=O)N[C@H](C(=O)NCC(=O)N[C@@H](CO)C(=O)NCC(=O)N[C@@H](CO)C(=O)N1CCC[C@H]1C(N)=O)C(C)C)[C@@H](C)O [M43] ({C20 diacid-βAsp}-ASQLSTAVLGRLSDELHRLQDYPRTDVGSGSP-NH2) | – | – | Clear | Clear | No change (a decrease of less than 1% from the initial value to the detected content is denoted as "no change") | No change (a decrease of less than 1% from the initial value to the detected content is denoted as "no change") | -1.96% | 17 pM |
| CC(C)C[C@H](NC(=O)[C@H](CCCNC(=N)N)NC(=O)CNC(=O)[C@H](CC(C)C)NC(=O)[C@@H](NC(=O)[C@H](C)NC(=O)[C@@H](NC(=O)[C@H](CO)NC(=O)[C@H](CC(C)C)NC(=O)[C@H](CCC(N)=O)NC(=O)[C@H](CO)NC(=O)[C@H](C)NC(=O)[C@H](CC(=O)O)NC(=O)CCCCCCCCCCCCCCCCC(=O)O)[C@@H](C)O)C(C)C)C(=O)N[C@@H](CO)C(=O)N[C@@H](CC(=O)O)C(=O)N[C@@H](CCC(=O)O)C(=O)N[C@@H](CC(C)C)C(=O)N[C@@H](Cc1c[nH]cn1)C(=O)N[C@@H](CCCNC(=N)N)C(=O)N[C@@H](CC(C)C)C(=O)N[C@@H](CCC(N)=O)C(=O)N[C@@H](CC(=O)O)C(=O)N[C@@H](Cc1ccc(O)cc1)C(=O)N1CCC[C@H]1C(=O)N[C@@H](CCCNC(=N)N)C(=O)N[C@H](C(=O)N[C@@H](CC(=O)O)C(=O)N[C@H](C(=O)NCC(=O)N[C@@H](CO)C(=O)NCC(=O)N[C@@H](CO)C(=O)N1CCC[C@H]1C(N)=O)C(C)C)[C@@H](C)O [M44] ({C18 diacid}-DASQLSTAVLGRLSDELHRLQDYPRTDVGSGSP-NH2) | – | – | Clear | Clear | -2.285% | -1.15% | -3.76% | 16 pM |

From patent publication EP4692114A1, “CALCITONIN ANALOGUE, AND DERIVATIVE THEREOF AND USE THEREOF” (Hangzhou Sciwind Biosciences Co., Ltd., priority 2023, dated 2024)
